Test results: patent publication US20240327493A1 (GEORGE MASON UNIVERSITY, priority 2023, published 2024)
Entries after “also recorded” stand apart in the source; their conditions may differ. Where a SMILES comes first, the peptide text is derived from it. Bridges are numbered along the chain shown (N, C = ends). Where no end group is shown, it is not given here.

Legend:
[1] = human serum diluted 1:4 in RPMI, ESI-MS, 0, 6, 24, 48 hours
Method: Angiotensin I was spiked in and used for normalization.
Human serum was diluted 1:4 in Gibco RPMI 1640 media (ThermoFisher Scientific, Waltham, MA, USA, Cat. No. 11-875-093) for a total of 1 mL and incubated at 37° C. for 15 minutes prior to time course. Next, 1 μL of the peptide stock was added to warmed serum for a final concentration of […] in the master mix. The rest of the time course was performed at room temperature. For each time point, aliquots of 100 μL were removed from the master mix and added to 200 μL of 3% trifluoroacetic acid. Samples were incubated on ice for 15 minutes before centrifugation at 16,000×g for 2.5 minutes. Supernatants were transferred to a clean tube and prepared for desalting via C18 column by adding 100 μL of sample buffer (20% acetonitrile, 2% trifluoroacetic acid) to supernatants before storage at—20° C. overnight. Samples were then processed through Pierce C18 spin columns (ThermoFisher Scientific, Cat. No. 89870) according to the manufacturer's instructions. […]
For ESI-MS analysis, serum stability samples were run on an Orbitrap Exploris 480 (ThermoFisher Scientific). […] ThermoFisher's Xcalibur 4.0 Data System was used for peptide quantification. […] The samples were batch reprocessed for quantification via peak area. Peptide abundances were normalized based on Angiotensin I abundance and quantified relative to initial abundance.

[2] = target: T1, PD-1/PD-L1 complex (Homo sapiens, UniProt Q15116); assay: AlphaScreen (PD-1/PD-L1 AlphaLISA binding kit), PD-1/PD-L1 complex formation; details: for Residual Activity: AlphaScreen PD-1/PD-L1 complex formation; for Blocking of PD-1/PD-L1 complex formation: AlphaScreen, result in words
T1 construct: purchased PerkinElmer AL356HV
Method: Peptides were screened using the PerkinElmer PD-1/PD-L1 (human) AlphaLISA Binding Kit (Waltham, MA, USA, Cat. No. AL356HV) according to the manufacturer's instructions. […] Briefly, peptides were resuspended in assay buffer with 4% dimethyl sulfoxide (DMSO) to make 4× stock solutions of 400 μM. […] Lastly, the 4× mixture of anti-His Acceptor beads and streptavidin Donor beads were prepared in the dark. […] The plate was incubated in the dark for 90 minutes at room temperature and luminescence was measured using a Tecan Spark multimode plate reader (Männedorf, Switzerland). For data analysis, a control with beads alone was subtracted from each well for background correction. Data analysis was conducted using GraphPad Prism version 9 (La Jolla, CA, USA).

[3] = Human serum was diluted 1:4 in Gibco RPMI 1640 media; details: room temperature (serum incubated at 37° C. for 15 minutes prior to time course); for fragment found: up to 6 hours
[4] = system: human PBMCs co-cultured with OVCAR8 cells; assay: Co-culture of OVCAR8 cells and stimulated human PBMCs, 1:10 OVCAR8:PBMC ratio; assay type: cell-based; details: for Immunosuppressive effect (reduction in TNFα/cytokines) compared with controls rPD-L1 and MN_Null: 1:10 OVCAR8:PBMC co-culture, FIG. 10D
Method: For this model, PBMCs and cancer cells were both stimulated prior to co-culture to promote expression of PD-1 and PD-L1, respectively.
OVCAR8 cells, generously provided by the Gottesman Lab (National Institutes of Health, Bethesda, MD, USA), and MDA-MB-231 cells (American Type Culture Collection, Rockville, MD, USA) were cultured in Gibco RPMI 1640 media (ThermoFisher Scientific, Cat. No. 11-875-093) supplemented with 10% Gibco fetal bovine serum (ThermoFisher Scientific, Cat. No. 10437028), and 1% penicillin/streptomycin (10,000 U/mL pen, 10 mg/mL strcp) from MilliporeSigma (Burlington, MA, USA, Cat. No. P4333). Cells were cultured at 37° C. and 5% CO2. Passage number was kept below 3 for co-culture assay. Human peripheral blood mononuclear cells were purchased frozen from […] PBMCs were thawed according to manufacturer's instructions one day before co-culture and cultured in the same media and conditions as cancer cell lines.
The next day, cells were stimulated with 100 ng/mL IFNγ and two vials of human PBMCs were thawed. On Day 3, concentrations of PBMCs and OVCAR8 cells (harvested from a control well) were measured using the QuadCount Automated Cell Counter. The concentration of PBMCs required for a 1:10 OVCAR8:PBMC ratio was calculated from the OVCAR8 concentration. PBMCs were plated on a separate 24-well plate (1 mL/well) and stimulated with 5 μg/mL of anti-CD3 and 5 μg/mL of anti-CD28 for 30 minutes before drug treatment. […] After 30 minutes, media was removed from OVCAR8 wells without treatment, and replaced with 1 mL of treated PBMCs. After 24 hours, the supernatants were collected from each well, and centrifuged at 10,000×g for 5 minutes to remove any remaining cells.
Briefly, samples from co-culture experiments with excess OVCAR8 ratios were diluted 1:10 in assay buffer, and samples from co-culture experiments with excess PBMC ratios were diluted 1:5 in assay buffer. Next, 10 μL of the diluted samples were mixed with 10 μL of an IL-2 antibody-oligonucleotide conjugate mixture and added to a 96-well working plate. Samples with excess OVCAR8 ratios were allowed to incubate overnight at 4° C. Samples with excess PBMCs were allowed to incubate for 1 hour at room temperature. Next, 80 μL of qPCR reaction mixture containing master mix and DNA ligase was added to each well. The plate was centrifuged at 2,500×g for 2 minutes. Samples were then added in triplicate (20 μL/well) to a 96-well PCR plate (ThermoFisher Scientific). PCR was run according to manufacturer's instructions using the QuantStudio 7 Pro Real-Time PCR System equipped with a 96-well, 0.2 mL block from ThermoFisher Scientific.
Remaining samples from experiments with excess PBMC ratios were analyzed using TNFα (Cat. No. 430204) ELISA MAX Deluxe Sets (BioLegend, San Diego, CA, USA) according to manufacturer's instructions. Briefly, 96-well Nunc™ MaxiSorp™ ELISA Plates (BioLegend, Cat. No. 423501) were coated with capture antibodies for TNFα and incubated overnight at 4° C. The next day, the plate was washed 4× with 1×PBS+0.05% Tween-20 (PBS-T). To block non-specific binding, 200 μL of assay dilutant buffer was added to each well and the plate was incubated at room temperature for 1 hour on a shaker. The plate was washed as before, and 100 μL of the samples or standards were added to each well in triplicate and incubated at room temperature for 2 hours on a shaker. The plate was washed 4× and 100 μL of detection antibody for TNFα was added to each well, and the plate was incubated at room temperature for 1 hour on a shaker. The plate was washed 4× and 100 μL of Avidin-HRP was added to each well, and the plate was incubated at room temperature for 30 minutes on a shaker.

[5] = target: T2, biotinylated PD-1 of the PerkinElmer PD-1/PD-L1 (human) AlphaLISA Binding Kit (human, UniProt Q15116 25-167, limits assumed, biotinylated (site not stated)); assay: AlphaScreen (PerkinElmer PD-1/PD-L1 human AlphaLISA binding kit): peptide titrated against biotinylated PD-1 and His-tagged PD-L1; readout percent PD-1/PD-L1 binding
T2 construct: Bought kit reagent
Method: (§1) Briefly, peptides were resuspended in assay buffer with 4% dimethyl sulfoxide (DMSO) to make 4× stock solutions of 400 μM. […] Lastly, the 4× mixture of anti-His Acceptor beads and streptavidin Donor beads were prepared in the dark. Peptides were then added in duplicates of 10 μL to a white 96-well ½-AreaPlate (PerkinElmer, Cat. No. 6005560) at 7 different concentrations from 1 nM to 100 μM. […] The plate was incubated in the dark for 90 minutes at room temperature and luminescence was measured using a Tecan Spark multimode plate reader (Männedorf, Switzerland). For data analysis, a control with beads alone was subtracted from each well for background correction. Data analysis was conducted using GraphPad Prism version 9 (La Jolla, CA, USA).

[6] = target: T2, biotinylated PD-1 of the PerkinElmer …; assay: AlphaScreen (PerkinElmer PD-1/PD-L1 human AlphaLISA binding kit): peptide titrated against biotinylated PD-1 and His-tagged PD-L1; readout percent activity (PD-1/PD-L1 complex formation)
Method: as §1

T1 sequence (Q15116 25-170 limits assumed, one chain of several): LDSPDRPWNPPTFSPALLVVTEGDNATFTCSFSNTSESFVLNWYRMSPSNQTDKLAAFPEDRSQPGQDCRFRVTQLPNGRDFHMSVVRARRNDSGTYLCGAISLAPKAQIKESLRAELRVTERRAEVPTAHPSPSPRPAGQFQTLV
T2 sequence (Q15116 25-167 limits assumed): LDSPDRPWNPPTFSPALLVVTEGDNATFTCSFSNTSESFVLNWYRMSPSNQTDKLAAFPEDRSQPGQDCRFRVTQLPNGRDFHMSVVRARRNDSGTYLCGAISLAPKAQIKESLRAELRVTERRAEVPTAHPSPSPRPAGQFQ

CC[C@H](C)[C@@H]1NC(=O)[C@H](CCSC)NC(=O)[C@H](C)NC(=O)[C@H](CCCNC(=N)N)NC(=O)[C@H](Cc2ccc(O)cc2)NC(=O)[C@@H](N)CSSC[C@@H](C(=O)O)NC(=O)[C@H](C(C)C)NC(=O)[C@H]([C@@H](C)O)NC(=O)[C@H]([C@@H](C)CC)NC(=O)[C@H](CCCNC(=N)N)NC(=O)[C@H](CCCCN)NC(=O)[C@H](Cc2ccc(O)cc2)NC(=O)[C@H](CC(=O)O)NC(=O)[C@H](C)NC(=O)CNC(=O)CNC(=O)[C@H](Cc2ccc(O)cc2)NC(=O)[C@H](CO)NC1=O [SEQ ID NO. 4] (H-CYRAMISYGGADYKRITVC-OH; disulfide 1-19)
Degradation in serum [1]: present at very low levels after 48 hours | IC50 [2]: < 10 µM

CRALIAYKGADYKRIC (disulfide 1-16) [SEQ ID NO. 8]
Residual Activity [2]: 62.87%

CRAMISYKGADYKRIC (disulfide 1-16) [SEQ ID NO. 7]
Residual Activity [2]: 45.77%

CRAXISYGGADYKXIC (norleucine at position 4; SITE 4 Nle; DISULFID 1..16 Intra chain disulphide formation; SITE 14 N-methyl arginine) [SEQ ID NO. 6]
Residual Activity [2]: 82.74% | Blocking of PD-1/PD-L1 complex formation [2]: lost activity | Blocking of PD-1/PD-L1 complex formation ([2]; listed as MN1.5): abolished the ability of MN1.1 to block PD-1/PD-L1 complex formation

NH3-CRAMISYGGADYK-(N-Me-Arg)-IC—COOH
fragment found [3]: oxidized MN1.4 | not cleaved ([3]; up to 48 hours): not significantly degraded at 48 hours

Pembrolizumab [reference compound]
TNFα levels ([4]; 1:10 OVCAR8:PBMC, 24 hours, ELISA, vs untreated co-culture control, FIG. 10C): did not have this effect | IL-2 levels ([4]; 1:10 OVCAR8:PBMC, 24 hours, vs untreated co-culture control, FIG. 10B): did not have this effect

YRCMISNGGADYKRITV (Ac-YRCMISNGGADYKRITV-NH2) [SEQ ID NO. 3]
Blocking of PD-1/PD-L1 complex formation [2]: mutation of Y7 is tolerated

YRCMISYGGADEKRITV [SEQ ID NO. 14]
Immunosuppressive effect (reduction in TNFα/cytokines) compared with controls rPD-L1 and MN_Null ([4]; listed as MN-Null): did not show a significant reduction | Immunosuppressive effect (reduction in TNFα/cytokines) compared with controls rPD-L1 and MN_Null ([4]; listed as MN_Null): less immunosuppressive activity as compared to MN1.4; also recorded: little immunosuppressive effect

YRCMISYGGADYKRITV
fragment found [3]: cysteinylated peptide, major, 15 minutes; also recorded: oxidized MN 1.1, minor, time 0

B1: MN 2.1 (peptide)
peptide: Ac-YRCMISNGGADYKRITV-NH2
modifications: not fully specified
notes: the text speaks of Y7Q for the computation
IC50 [5]: 17.4 µM

B2: MN4.2 (peptide)
peptide: CRALIAYKGADYKRIC
modifications: disulfide 1-16
IC50 (read off the curve) [6]: ~10 µM

B3: MN 3.2 (peptide)
peptide: CRAMISYKGADYKRIC
modifications: disulfide 1-16
IC50 (read off the curve) [6]: ~10 µM
